Source: US20240165196A1, “Beta-Lactamase Inhibitors” (VIB VZW, priority 2021, published 2024)

Experiments:
E. coli strain UZ_TEM104 = type: cell-based
E. coli UZ_TEM104 = experiment: FACS analysis with Propidium Iodide and pFTAA; type: cell-based
Experimental: FIGS. 3A-3P. […] Three replicates are shown for each condition. […] A single representative image is shown. […] Three replicates are shown for each condition. (FIG. 3E) [Left] […] [Middle] […] [Right] […] A single representative image is shown. […] A single representative image is shown. […] A single representative image is shown. […] A single representative blot is shown. […] 106 cells were analysed for the plot.
First, we tested the assay using a mixture of live and heat inactivated (FIG. 3L) or just live bacteria (FIG. 3M), showing that heat inactivated, but not live bacteria are stained with PI, and neither are stained with pFTAA.
Bacterial cells in the cleaned suspensions were stained with both propidium iodide (PI) and FITC peptide to evaluate the killing rate and peptide uptake in a two-dimensional analysis. […] Treated bacteria washed with PBS buffer two times. One microliter of PI (Invitrogen) was added to the bacteria and incubated for 5 min. The bacteria were used by FACS tubes for 40000 events. To correlate the activity of the peptides with cell death, the fluorescence intensity was measured in two channels using the Gallios™ Flow Cytometer (Beckman Coulter, USA), PI: excitation 536 nm and emission 617 nm, FITC: excitation 490 nm and emission 525 nm. Heated bacteria at 90° C. for 10 min were used as PI-positive control.

HeLa = type: cell-based, human
Text: FIGS. 4A-4K. […] IV—Intravenous, IP—Intraperitoneal, SC—Subcutaneously. The data shown is from a single experiment with 4 animals per group. […] (ns—non significant, #—P>0.05, *—P≤0.05, ***—P≤0.01, ****—P≤0.001). (FIG. 4G) FICI plot as in FIG. 2, for the E. coli strains indicated and the combination of penicillin and the TEM3.2 peptide. […] (FIG. 4J) Same as FIG. 4H for peptide BGAL. (FIG. 4K) Same as FIG. 4H for peptide P33.
Given this broad activity on clinical isolates, we wondered if the TEM3.2 peptide could be used to re-sensitize bacteria to ampicillin treatment in vivo, in a mouse Urinary Tract Infection (UTI) model.

[1] = mouse, in vivo, iv, 5 mg/kg
Experimental: Vehicle alone (0.9% NaCl) was also administered (IV).

| Substance | reduction of the MIC of penicillin G (E. coli strain UZ_TEM104; additive at fixed 50 μg/mL) [fold] | MIC penicillin (E. coli strain UZ_TEM104; in presence of additive at 50 μg/mL) [µg/mL] | cells with non-lethal aggregation (shift only in pFTAA channel) (E. coli UZ_TEM104; 50 μg/mL TEM3.2 in PBS, 4 h) [%] | change in PI (cell death) and pFTAA (aggregation) channels (E. coli UZ_TEM104; 400 μg/mL penicillin G and 50 μg/mL TEM3.2, 4 h) | cytotoxicity (Cell Titer Blue) (HeLa) | hematologic analysis [1] |
| --- | --- | --- | --- | --- | --- | --- |
| Ac-RLTAFLHNRRPRLTAFLHNRR-NH2 [TEM3.0] | 8 | 200 | – | – | – | – |
| Ac-RLTAFLHNRRPRLTAFLRQRR-NH2 [TEM3.2] | – | – | > 99 | shift in both channels | not cytotoxic | no major discrepancies to vehicle treated controls |
